The subject of one series is ZR75.1 HER2^+ cells. Put plainly: 3D Matrigel culture of ZR75.1-H2B-Dendra2 cells at low or high density, live cells. Conditions: 2 μM, day 2 to day 8, 3D Matrigel. The series is classed as cell-based, human. On the procedure:
Reagents, cell culture, and treatments: EGF was obtained from PeproTech (Rocky Hill, N.J.) and used at 100 ng/ml. Thapsigargin was from Sigma (St. Louis, Mo.) and used at 2 nM. The ZR75.1-H2B-Dendra2 cell line was generated by stable transfection of the H2B-Dendra2 plasmid (Gurskaya et al., “Engineering of a Monomeric Green-to-Red Photoactivatable Fluorescent Protein Induced by Blue Light,” Nat. Biotechnol. 24:461-465 (2006), which is hereby incorporated by reference in its entirety). For 3D cultures, MCF10A-HER2, SKBR3, and ZR75.1-H2B-Dendra2 cells were plated in growth factor-reduced Matrigel (Corning, Corning, N.Y.) and grown as described previously (Avivar-Valderas et al., “Regulation of Autophagy during ECM Detachment is Linked to a Selective Inhibition of mTORC1 by PERK,” Oncogene 32(41):4932-40 (2013), which is hereby incorporated by reference in its entirety). When referring to “low density,” 3,500 cells/8-well were seeded, and for “high density” 20,000 cells/8-well. Treatments with vehicle (DMSO) or LY4 (2 μM) were replaced every 24 hours for 2D and every 48 hours for 3D cultures.

A short description of series [1]: Tolerability in MMTV-HER2 female mice. The series is classed as in vivo, mouse. The protocol: (§1) Mice, tumor growth, and tissue processing: The FVB/N-Tg (MMTVneu) mouse strain was obtained from Jackson Laboratories (Sacramento, Calif.). […] Before being used in any experiment, females underwent one round of pregnancy and at least two weeks of no lactation after weaning. Females between 24-32 weeks of age were injected intraperitoneally with vehicle (90% corn oil, 10% ethanol) or LY4 (50 mpk) daily, for two weeks. For the combination treatment, females 24-32 weeks of age were treated daily by oral gavage with Abemaciclib (50 mpk) for 4 weeks before starting the treatment described earlier with LY4. Tumor volumes were measured using the formula (Dxd^2)/2, where D is the longest and d is the shortest diameter. For CTC count, animals were anesthetized and whole blood was extracted by cardiac puncture. Mammary glands, lungs, and tumors were collected and fixed in 10% buffered formalin overnight before paraffin embedding. The bone marrow from the two lower limbs was flushed with a 26 G needle and further processed by Ficoll density gradient centrifugation. For CTC as well as for DTC detection in bone marrow, tissues were depleted of mature hematopoietic cells by anti-mouse antibody-labeled magnetic bead separation (Miltenyi Biotec, San Diego, Calif.) before fixation in formalin for 20 minutes at 4° C.

In series [2] the test system is HER2^+ metastases and DCCs. Kind of series: Sequential Abemaciclib then LY4 treatment of MMTV-HER2 mice. The series is classed as in vivo, mouse. Conditions: Abemaciclib 50 mpk 4 weeks; LY4 50 mpk. On the procedure: as §1
Series [3] relates to HER2^+ metastases and DCCs. Put plainly: Metastasis, CTC and DCC quantification in MMTV-HER2 mice. In kind it is in vivo, mouse. Conditions: 50 mpk i.p. daily, two weeks. On the procedure:
as §1
IHC and IF: IHC and IF from paraffin-embedded sections was performed as previously described (Avivar-Valderas et al., “Regulation of Autophagy during ECM Detachment is Linked to a Selective Inhibition of mTORC1 by PERK,” Oncogene 32(41):4932-40 (2013), which is hereby incorporated by reference in its entirety). Briefly, slides were dewaxed and serially rehydrated. Heat-induced antigen retrieval was performed in either citrate buffer (10 mM, pH 6), EDTA buffer (1 mM, pH 8), or Tris/EDTA (pH9). Slides were further permeabilized in 0.1% Triton™-X100, blocked and incubated with primary antibody overnight at 4° C. at 1:50-1:200 dilution. For IHC, an additional step of endogenous peroxidase and avidin/biotin quenching was performed before primary antibody incubation. […] Next, slides were incubated in secondary antibodies (Life Technologies, Norwalk, Conn.) and mounted. For IHC, sections were processed using VectaStain ABC Elite kit (Vector Laboratories, Bulingame, Calif.) and DAB Substrate kit for peroxidase labelling (Vector Laboratories) and mounted in VectaMount medium (Vector laboratories). For IF, sections were mounted in ProLong Gold Antifade aqueous medium (Thermo Fisher, Waltham, Mass.).
In the case of immunocytofluorescence, cytospins of fixed cells (100,000-200,000 cells/cytospin were prepared by cyto-centrifugation at 500 rpm for 3 minutes on poly-prep slides, and the staining protocol was performed as explained below from the permeabilization onward. For the staining of 3D cultures, acini were fixed in 4% PFA for 20 minutes at 4° C., permeabilized with 0.5% Triton™-X100 in PBS for 20 minutes at room temperature, washed in PBS-glycine, and then blocked with 10% normal goat serum for 1 hour at 37° C., before performing immunofluorescence staining.

The test system of the next series is MMTV-HER2 mammary glands. Kind of series: Mammary gland whole mount and histology of early lesions in MMTV-HER2 mice. The series is classed as in vivo, mouse. Conditions: 50 mpk, two weeks. On the procedure: as §1
Mammary gland whole mount staining. Mammary glands fixed in 10% buffered formalin were incubated in Carmine Alum stain (Carmine 0.2%, Aluminum potassium sulfate 0.5%) (Sigma, St. Louis, Mo.) for 2 days. Then, they were dehydrated and transferred to methyl salicylate solution before imaging using a stereomicroscope.
The scoring for P-HER2 levels is explained in FIG. 10A. For the scoring of CK8/18 and SMA in mammary gland ducts, 20 low magnification fields were evaluated per animal for the expression of CK8/18 as negative (0), low (1), or high (2) and the same for SMA and the sum of the two scores was considered as the final score (from 0 to 4).

We go through 1 compound from patent US20210121527A1, “METHODS OF TREATING MINIMAL RESIDUAL CANCER” (ICAHN SCHOOL OF MEDICINE AT MOUNT SINAI, priority 2018, published 2021).

Regarding `Cc1cc(NC(=O)[C@H](O)c2cc(F)cc(F)c2)ccc1-c1cnc(N)c(C(=O)NC(C)C)c1` [LY4, 2-amino-5-[4-[[(2R)-2-(3,5-difluorophenyl)-2-hydroxy-acetyl]amino]-2-methyl-phenyl]-N-isopropyl-pyridine-3-carboxamide], in the series with ZR75.1 HER2^+ cells, the “survival of quiescent single cells (low density)” value is “eradicated the quiescent single ZR75.1 HER2^+ cells” and the “viability of cells seeded at high density” value was “no significant effect on the viability”. Moreover, in series [1] (50 mpk i.p. daily, two weeks), the “bone marrow cell homeostasis and peripheral blood white cells (total cell counts)” value is on record as “no effect on total cell counts”; the “tolerability, body weight” value is “well tolerated, with no significant changes in body weight”. The “glucose levels, blood cell counts, drinking and feeding behavior” value in series [1] (doses of LY4 used, non-tumor or cancer bearing mice) was “did not significantly affect glucose levels, bone marrow, or peripheral blood cell counts, drinking and feeding behavior”. Besides, the “GADD34 in primary tumor sections” value in series [2] was “eliminated the expression of GADD34”. Also, in series [3], the “HER2^+ circulating tumor cells in blood” value was “no significant difference between vehicle and LY4-treated animals”; the area of macro-metastases entry is on record as “without affecting the area of these metastases”; the “number and incidence of lung macro-metastases (>100 cells)” value is “reduced the number and the incidence of macro-metastases”; the “number of DCCs in bone marrow” value is “significantly decreased the number of DCCs found in bone marrow”. In series [3], the “number of P-Rb negative single DCCs in lung sections” value is listed as “strongly reduced the number of non-proliferating (P-Rb negative) single DCCs”, the “number of P-Rb positive solitary DTCs in lung” value is “without affecting the number of P-Rb positive solitary DTCs” and the “number of lung micro-metastases (2-100 cells)” value is on record as “significant decrease in the number of micro-metastases”. Further, in the series with MMTV-HER2 mammary glands, the “cytokeratin 8/18 expression in the luminal layer of mammary ducts” value is on record as “increased expression of cytokeratin 8/18 in the luminal layer”; the “number of occluded hyperplasias and DCIS-like lesions” value is on record as “reduced to less than half of that in vehicle-treated animals”. The “hollow lumen mammary gland ducts, share of structures” value in the series on MMTV-HER2 mammary glands (around 20% in control females) is “more than 60%”.
